Assay results taken from patent publication US20090062255A1, “TUMOR-TARGETING EVALUATION METHODOLOGY AND COMPOUNDS RELATED THERETO” (THALLION PHARMACEUTICALS INC., priority 2007, published 2009).

Experiments:
SRBC = assay: Hemolysis of SRBC; assay type: cell-based; details: concentration necessary to achieve 50% hemolysis of SRBC
[1] = system: MDA-MB-231 (mammary gland adenocarcinoma); assay: In vitro cytotoxic activity (GI50, propidium iodide), MDA-MB-231; assay type: cell-based, human; details: method (2), 96 hrs
Protocol: (§1) Procedures used for each series of tests are described below.
(§2) Compounds were dissolved at 10 mM in DMSO. […] The following day, propidium iodide was added to one of the two plates and fluorescence measured (Tz). […] Each compound was tested at each concentration and in triplicates. The equivalent cell number was determined after adding propidium iodide by measuring the signal by fluorescence (C for control).

[2] = system: HT-29 (colorectal carcinoma); assay: In vitro cytotoxic activity (GI50, propidium iodide), HT-29; assay type: cell-based; details: method (2), 96 hrs
Protocol: as §1, §2

[3] = system: PC-3 (prostate adenocarcinoma); assay: In vitro cytotoxic activity (GI50, propidium iodide), PC-3; assay type: cell-based, human; details: method (2)
Protocol: as §1, §2

SF268 (CNS) = assay: In vitro cytotoxic activity (GI50, propidium iodide), SF-268; assay type: cell-based; details: method (2), 96 hrs
Protocol: as §1, §2

[4] = molecular target: T1, peripheral benzodiazepine receptor (PBR) (Rattus norvegicus, UniProt P16257); assay: In-house PBR binding assay ([3H]PK11195, rat heart mitochondrial membranes); details: in-house radioligand-binding assay
T1 construct: CBR and PBR were obtained from rat brain and heart membrane-fractions, respectively; from tissue; host or cells: Wistar rat heart membranes

[5] = system: prenylation of Ras, RAP1A and HDJ2 (FTase, GGTase I); assay: Protein prenylation immunoblot (FTase and GGTase I activities) in MCF-7 cells; assay type: cell-based, human; details: MCF7 cells, 3, 10 and 30 μM, 24 h
Protocol: It was first verified if ECO-4601 interferes with Ras processing by monitoring FTase and GGTase I activities by immunoblot analysis. For these experiments, exponentially growing MCF-7 (human breast tumor) cells were seeded in 60 mm cell culture dishes at a density of 2.5×10^6 cells per dish. After an 18 h incubation period, ECO-4601 or lovastatin (Sigma-Aldrich, St. Louis, Mo.) were added at a final concentration of 3, 10 and 30 μM for 24 h. Cells were also treated with the vehicle alone (0.05% DMSO) for the same incubation periods. Treated and control cells were lysed in ice-cold RIPA buffer (50 mM Tris-HCl pH 7.4, 1% Triton X-100, 1% deoxycholate, 0.1% SDS, 150 mM NaCl, and 1 mM EDTA) containing protease inhibitors (Roche, Mannheim, Germany) and phosphatase inhibitors (EMD Biosciences, Calbiochem, San Diego, Calif.) for 20 minutes on ice. After lysis, cell debris was removed by centrifugation at 12000×g for 10 min. […] Bound antibodies were detected using horseradish peroxidase-conjugated secondary antibodies (Jackson ImmunoResearch Laboratories Inc., West Grove, Pa.) for 1 h at room temperature in 0.5% skim milk-TBS, visualized by treating the membranes with enhanced chemiluminescence reagents (Millipore, Mississauga, ON, Canada) and exposing them to BioMax Light Films (Kodak, Mississauga, ON, Canada). […]

Structure (SMILES) | Hemolysis (ED50 μg/mL) (SRBC) | further results
CCCN1c2c(O)cccc2C(=O)N(C/C=C(\C)CC/C=C(\C)CCC=C(C)C)c2cc(O)cc(O)c21 [Compound 63, 10-farnesyl-4,6,8-trihydroxy-5-n-propyl-5,10-dihydro-dibenzo[b,e][1,4]diazepin-11-one] | >64 µg/mL | 
CC(=O)NC(C)(CCC=C(C)C)CCCC(C)=CCN1C(=O)c2cccc(O)c2Nc2c(O)cc(O)cc21 (stereo not shown) [Compound 92, 10-(7-acetamido-3,7,11-trimethyldodeca-2,10-dienyl)-4,6,8-trihydroxy-5,10-dihydro-dibenzo[b,e][1,4]diazepin-11-one] | >64 µg/mL | 
COC(C)(C)CCCC(C)=CCCC(C)=CCN1C(=O)c2cccc(O)c2Nc2c(O)cc(O)cc21 [Compound 82, 10-(11-methoxy-3,7,11-trimethyl-2,6-dodecadienyl)-4,6,8-trihydroxy-5,10-dihydro-dibenzo[b,e][1,4]diazepin-11-one] | >64 µg/mL | 
COC(C)(CCC=C(C)C)CCC/C(C)=C/CN1C(=O)c2cccc(O)c2Nc2c(O)cc(O)cc21 (stereo not shown) [Compound 83] | 12.4 µg/mL | GI50 [1]: 6.71 µM; GI50 [2]: 19.6 µM; GI50 ([3]; 96 hrs): 13.2 µM; GI50 (SF268 (CNS)): 9.74 µM
[2H]C([2H])([2H])N1c2c(O)cccc2C(=O)N(C/C=C(\C)CC/C=C(\C)CCC=C(C)C)c2cc(O)cc(O)c21 [Compound 98, 10-Farnesyl-4,6,8-trihydroxy-5-(trideuteriomethyl)-5,10-dihydro-dibenzo[b,e][1,4]diazepin-11-one] | 4.5 µg/mL | 
C/C(=C\CN1C(=O)c2cccc(O)c2Nc2c(O)cc(O)cc21)CC/C=C(\C)CCC1OC1(C)C (stereo not shown) [Compound 18] | >64 µg/mL | GI50 ([3]; Homo sapiens, 96 h): > 30 µM
CCN1c2c(O)cccc2C(=O)N(CC=C(C)CCCC(C)(CCCC(C)(C)OC)OC)c2cc(O)cc(O)c21 (stereo not shown) [Compound 87, 10-(7,11-dimethoxy-3,7,11-trimethyl-2-dodecenyl)-4,6,8-trihydroxy-5-ethyl-5,10-dihydro-dibenzo[b,e][1,4]diazepin-11-one] | >64 µg/mL | 
CCCCCCN1c2c(O)cccc2C(=O)N(C/C=C(\C)CC/C=C(\C)CCC=C(C)C)c2cc(O)cc(O)c21 [Compound 67, 10-farnesyl-4,6,8-trihydroxy-5-n-hexyl-5,10-dihydro-dibenzo[b,e][1,4]diazepin-11-one] | >64 µg/mL | 
CCN1c2c(O)cccc2C(=O)N(C/C=C(\C)CC/C=C(\C)CCC=C(C)C)c2cc(O)cc(O)c21 [Compound 14, 10-farnesyl-4,6,8-trihydroxy-5-ethyl-5,10-dihydro-dibenzo[b,e][1,4]diazepin-11-one] | 43.9 µg/mL | 
CC(C)=CCCC(C)(O)CCCC(C)=CCN1C(=O)c2cccc(O)c2Nc2c(O)cc(O)cc21 (stereo not shown) [Compound 89, 10-(7-hydroxy-3,7,11-trimethyldodeca-2,10-dienyl)-4,6,8-trihydroxy-5,10-dihydro-dibenzo[b,e][1,4]diazepin-11-one] | >64 µg/mL | 
COC(C)(CCC=C(C)C)CCC/C(C)=C/CN1C(=O)c2cccc(O)c2N(C)c2c(O)cc(O)cc21 (stereo not shown) [Compound 80, 10-(7-methoxy-3,7,11-trimethyldodeca-2,10-dienyl)-4,6,8-trihydroxy-5-methyl-5,10-dihydro-dibenzo[b,e][1,4]diazepin-11-one] | >64 µg/mL | 
COC(C)(C)CCCC(C)(CCCC(C)=CCN1C(=O)c2cccc(O)c2Nc2c(O)cc(O)cc21)OC (stereo not shown) [Compound 84, 10-(7,11-dimethoxy-3,7,11-trimethyl-2-dodecenyl)-4,6,8-trihydroxy-5,10-dihydro-dibenzo[b,e][1,4]diazepin-11-one] | >32 µg/mL | 
CC(C)=CCC/C(C)=C/CC/C(C)=C/CN1C(=O)c2cccc(O)c2N(C)c2c1cc(O)c(Br)c2O [Compound 99] |  | IC50 [4]: 0.01 µM
CC(C)=CCC/C(C)=C/CC/C(C)=C/CN1C(=O)c2cccc(O)c2Nc2c1cc(O)c(Br)c2O [Compound 97, 10-(farnesyl)-7-bromo-4,6,8-trihydroxy-5,10-dihydro-dibenzo[b,e][1,4]diazepin-11-one] | 15.1 µg/mL | 
CCCCN1c2c(O)cccc2C(=O)N(C/C=C(\C)CC/C=C(\C)CCC=C(C)C)c2cc(O)cc(O)c21 [Compound 64, 10-farnesyl-4,6,8-trihydroxy-5-n-butyl-5,10-dihydro-dibenzo[b,e][1,4]diazepin-11-one] | >64 µg/mL | 
CCC(C)N1c2c(O)cccc2C(=O)N(C/C=C(\C)CC/C=C(\C)CCC=C(C)C)c2cc(O)cc(O)c21 (stereo not shown) [Compound 77, 10-Farnesyl-4,6,8-trihydroxy-5-sec-butyl-5,10-dihydro-dibenzo[b,e][1,4]diazepin-11-one] | 60.9 µg/mL | 
CC[C@H](C)C(=O)O[C@H]1C[C@@H](C)C=C2C=C[C@H](C)[C@H](CC[C@@H]3C[C@@H](O)CC(=O)O3)[C@H]21 [lovostatin, lovastatin, reference compound] |  | effect on protein prenylation (mobility shift of Ras, RAP1A and HDJ2) [5]: expected mobility shift
CC(C)CCCC(C)CCCC(C)CCN1C(=O)c2cccc(O)c2N(C)c2c(O)cc(O)cc21 (stereo not shown) [Compound 78, 10-(3,7,11-trimethyldodecyl)-4,6,8-trihydroxy-5-methyl-5,10-dihydro-dibenzo[b,e][1,4]diazepin-11-one] | 9.89 µg/mL | 
CCN1c2c(O)cccc2C(=O)N(CC=C(C)CCC=C(C)CCCC(C)(C)OC)c2cc(O)cc(O)c21 [Compound 85, 10-(11-methoxy-3,7,11-trimethyl-2,6-dodecadienyl)-4,6,8-trihydroxy-5-ethyl-5,10-dihydro-dibenzo[b,e][1,4]diazepin-11-one] | >64 µg/mL | 
CC(C)=CCCC1(C)OC1CC/C(C)=C/CN1C(=O)c2cccc(O)c2Nc2c(O)cc(O)cc21 (stereo not shown) [Compound 17, 10-(3,7,11-trimethyl-6,7-epoxydodeca-2,10-dienyl)-4,6,8-trihydroxy-5,10-dihydro-dibenzo[b,e][1,4]diazepin-11-one] | 35.0 µg/mL | 
